Measured values published in patent US5721267A, “Chemotherapeutic pyrrolocarbazole derivatives” (Syntex (U.S.A.) Inc., priority 1997, dated 1998).
pIC50: −log10 of the molar value.

Biological target: T1, β1 isozyme of PKC from rat brain (Rattus norvegicus, UniProt P68403)
T1 construct: β1 isozyme of PKC from rat brain; from tissue; host or cells: rat brain
Test: Protein kinase C inhibition assay (32P incorporation from γ-32P ATP into synthetic peptide substrate)
Format: biochemical
Conditions: activated by 5×10^-6 M diC8 and 1 μg/mL phosphatidylserine, 50 μM ATP, read-out: IC50 (concentration necessary to achieve 50% inhibition of PKC)
Protocol: In vitro activity for protein kinase C inhibition, is quantitated by measuring incorporation of […] from γ-^32 P ATP into synthetic peptide substrates.
Protein Kinase C (PKC) inhibitory activity is quantitated by measuring incorporation of ^32 P from γ-^32 P ATP into synthetic peptide substrates. The inhibitory potential is measured using the β1 isozyme of PKC from rat brain and the synthetic peptide substrate ala-lys-arg-arg-arg-leu-ser-ser-leu-arg-ala.
A reaction mixture containing 25 mM Tris-HCl, pH 7.5, 2.5 mM Mg(NO3), 1.0 mM EGTA, 20 μM substrate, 1 μg/mL phosphatidlserine (PS), 5×10 ^-6 M diacylglycerol(di-C8), and 50 μM ATP is spiked with γ-^32 P ATP (>5,000 Ci/mmol) to provide approximately 10^6 CPM per reaction and 0.08 μg/mL PKC in a 50 μl volume per well. The assay is run with or without test compound, added at various concentrations. After five minutes incubation at room temperature, the reaction is stopped by the addition of 0.2V of a 50% TCA solution. A 30 μl sample from each well (control and test compound) is then spotted onto Whatman P-81 ion exchange chromatography paper, and 32-P incorporation is then counted on a Beckman LS 5000 TA liquid scintillation counter. […]
% Inhibition=1.0 -[(sample CPM-basal CPM)/(total CPM-basal CPM)]×100 and the concentration necessary to achieve 50% Inhibition is determined.

T1 sequence (P68403 whole entry): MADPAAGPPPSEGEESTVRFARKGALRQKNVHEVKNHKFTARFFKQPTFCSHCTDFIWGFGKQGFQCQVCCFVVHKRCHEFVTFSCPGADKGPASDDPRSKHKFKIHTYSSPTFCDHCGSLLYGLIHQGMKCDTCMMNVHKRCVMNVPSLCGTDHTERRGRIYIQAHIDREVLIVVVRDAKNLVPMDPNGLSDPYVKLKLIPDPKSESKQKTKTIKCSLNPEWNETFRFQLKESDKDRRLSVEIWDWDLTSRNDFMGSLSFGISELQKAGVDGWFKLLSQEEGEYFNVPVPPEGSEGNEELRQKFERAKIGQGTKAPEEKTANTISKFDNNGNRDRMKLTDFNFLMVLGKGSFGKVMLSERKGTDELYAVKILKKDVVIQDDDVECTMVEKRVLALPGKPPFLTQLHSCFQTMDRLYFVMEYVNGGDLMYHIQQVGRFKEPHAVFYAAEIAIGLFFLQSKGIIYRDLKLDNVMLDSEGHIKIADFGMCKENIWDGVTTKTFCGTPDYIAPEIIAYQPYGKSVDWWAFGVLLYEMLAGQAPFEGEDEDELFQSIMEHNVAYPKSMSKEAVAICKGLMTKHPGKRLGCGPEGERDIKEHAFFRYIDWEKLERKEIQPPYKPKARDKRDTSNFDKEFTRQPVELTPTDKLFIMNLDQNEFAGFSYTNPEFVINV

pIC50: 7.52
Compound: CNCCCn1c2ccccc2c2c3c(c(-c4ccsc4)cc21)C(=O)NC3=O [1,3-dioxo-6-(3-methylaminopropyl)-1,2,3,6-tetrahydro-4-(thiophen-3-yl)-pyrrolo[3,4-c]carbazole]
